Data on 1 compound can be found in US11846639B2, “Ligand discovery for T cell receptors” (priority 2014, dated 2023).

Molecules are shown by their SMILES. Residues, ends and D or L forms follow the SMILES beside them.

The test system of one assay is 5cc7 T cell blasts. The format is cell-based, mice. The following applies: 5cc7 T cells; peptide presented by I-Ek; read-out: signaling potency (EC50). The method, then:
Selection of library derived I-Ek peptides for further characterization. Peptides were chosen from the deep sequencing data across a wide range of sequence prevalence for further study via SPR, activity, and structural characterization. Peptides were chosen that were recognized by 1, 2, or all 3 I-E^k reactive TCRs. All peptides were tested for activity with both 2B4 and 5cc7 T cell clones regardless of for which TCR they were initially selected. A subset of peptides was chosen to further characterize via SPR. The 2A peptide that was structurally characterized in FIG. 5A was discovered by manual curation of an I-Ek peptide library. 2A is highly homologous to peptides represented in the deep sequencing data and co-clusters with MCC.
Activity assay for I-Ek-selected peptides. Lymphocytes were isolated from 5cc7 or 2B4 TCR transgenic Rag−/− mice. […] CD69 upregulation was measured using an Accuri C6 flow cytometer with an autosampler (BD) by measuring CD69 MFI in the CD4+ gate. Data was then normalized and EC50s measured via Prism. IL-2 release was measured in technical triplicates via anti-IL-2 Elisa (Ready-setgo mouse IL-2 ELISA kit, eBioscience 88-7024), as recommended by the manufacturer. […] Absorbance was measured via SpectraMax Paradigm (Molecular Devices), with EC50 determined via Graphpad Prism.

The next assay deals with 5cc7 TCR. The assay is described as follows: Surface plasmon resonance affinity of peptide-I-Ek for 5cc7 TCR. The format is binding, murine. The following applies: SPR, peptide exchanged into soluble I-Ek. The text has this: Refolded Murine TCRs for crystallography and affinity measurements. Refolded 2B4, 226, and 5cc7 were created essentially as described. For […] and 5c2 crystal structures, the 5c1 and 5c2 peptides were fused to the N-terminus of 5cc7β via a 10-amino acid GlySer linker. TCRs were purified via size exclusion chromatography and assayed via SDS-PAGE to ensure 1:1 α:β stoichiometry. If there were an excess of TCRβ, ββ homodimer was purified away from αβ heterodimer via ion exchange chromatography on a MonoQ column (GE Healthcare) using a 20 mM Tris pH 8/20 mM Tris pH8+ 500 mM NaCl buffer system. Proteins were then reexchanged into HBS for further use.
Surface plasmon resonance. Affinity measurements for peptides bound to I-Ek for 226, 2B4, and 5cc7 TCRs were determined via surface plasmon resonance on a Biacore T100 (GE Healthcare). 10 μM of peptide of interest was added to biotinylated Clip-I-Ek. 1 U thrombin/100 μg MHC was added and incubated at 37°. After 1 hour, pH was lowered by adding sodium cacodylate pH 6.2 to 30 mM and sample was incubated at 37° overnight. Samples were then neutralized with 40 mM HEPES pH 7.2 and stored at 4° until use. pMHC exchanged with the peptide of interest were bound to a Biacore SA chip (GE Healthcare) at a low surface density (100-200 RU) to ensure no recapture of analyte. I-Ek exchanged with a null peptide (MCC K99E) was used as the reference surface. […]

On to `CC(C)C[C@H](NC(=O)[C@H](Cc1ccccc1)NC(=O)[C@H](Cc1ccccc1)NC(=O)[C@H](C)NC(=O)[C@@H](NC(=O)CNC(=O)[C@H](CC(N)=O)NC(=O)[C@H](C)N)C(C)C)C(=O)N[C@H](C(=O)N1CCC[C@H]1C(=O)N[C@@H](Cc1ccccc1)C(=O)N[C@@H](CCCCN)C(=O)O)[C@@H](C)O` [compound 50] (H-ANGVAFFLTPFK-OH; N-terminus and C-terminus assumed), for which the EC50 (as a rule, the concentration at which the effect is half-maximal) in the assay with 5cc7 T cell blasts came to 1500 nM. In addition, binding on 5cc7 TCR was characterised by a dissociation constant (Kd) of 115 µM.
